Data from article PMC7236921, “γ-Secretase modulators exhibit selectivity for modulation of APP cleavage but inverse γ-secretase modulators do not” (Alzheimer's Research & Therapy, 2020).

Tests used:
[1] = biological target: T1, PS2 γ-secretase (PS2 membrane, PSEN1−/− PSEN2+/+) (Homo sapiens, UniProt P49810); experiment: cell-free cleavage of rC100sub, IP-MS of Abeta; type: biochemical; details: inverse modulator (iGSM), 100 μM; substrate rC100sub (APP C100); pH 6.5, 37 °C, 2 h
T1 construct: endogenous complex in CHAPSO-solubilized membrane of HEK 293T cells expressing only PS2; with Nicastrin; Gamma-secretase subunit APH-1A; Gamma-secretase subunit PEN-2

[2] = biological target: T2, PS1 γ-secretase (PS1 membrane, PSEN1+/+ PSEN2−/−) (Homo sapiens, UniProt P49768); experiment: cell-free cleavage of rC100sub, IP-MS of Abeta; type: biochemical; details: inverse modulator (iGSM), 100 μM; substrate rC100sub (APP C100); pH 6.5, 37 °C, 2 h
T2 construct: endogenous complex in CHAPSO-solubilized membrane of HEK 293T cells expressing only PS1; with Nicastrin; Gamma-secretase subunit APH-1A; Gamma-secretase subunit PEN-2

Compound: CC(C)OC(=O)C(C)(C)Oc1ccc(C(=O)c2ccc(Cl)cc2)cc1 [fenofibrate]
- percentage change of Aβ38 [1]: iGSMs had an enhanced response when compared to WT
- percentage change of Aβ38 [2]: the iGSM treatment resulted in only slight changes in the peptides produced
